One data set deals with T1, α-glucosidase (Saccharomyces cerevisiae, UniProt P53341).
T1 construct: purchased Sigma-Aldrich
The data set can be described thus: biochemical. Conditions: triplicate values; read-out: α-Glucosidase Inhibition IC50 ± SEM. Here is the method: The inhibition of α-glucosidase activity was measured using a modified version of a previously published method. In 100 mL of phosphate buffer (pH 6.8) containing 200 mg of bovine serum albumin, one milligram of α-glucosidase (Saccharomyces cerevisiae, Sigma-Aldrich, St. Louis, MO, USA) was dissolved (Merck, Darmstadt, Germany). The reaction mixture was made up of 10 μL of sample at various concentrations ([…]), 490 μL of phosphate buffer pH 6.8, and 250 μL of 5 mM p-nitrophenyl-D-glucopyranoside (Sigma-Aldrich, Buchs, Switzerland). After a 5 min preincubation at 37 °C, 250 μL of α-glucosidase (0.15 unit/mL) was added and incubated at 37 °C for 15 min. The reaction was stopped by adding 2000 μL Na2CO3 200 mM. α-glucosidase activity was measured using a spectrophotometer UV-Vis (Shimadzu 265, Kyoto, Japan) at 400 nm by measuring the amount of p-nitrophenol released from p-NPG. […] Equation (1) was used to calculate the percentage of inhibition.

The next data set concerns the target α-amylase (Aspergillus oryzae, UniProt P0C1B3). Put plainly: biochemical. Conditions: triplicate values; read-out: α-Amylase Inhibition IC50 ± SEM. Here is the method: The α-amylase inhibition activity was measured using the previously reported methodologies. An amount of 500 μL of test sample ([…]) and 500 μL of […] α-amylase (source: Aspergillus oryzae) solution (0.5 mg/mL) in […] phosphate buffer (pH 6.9) were incubated for 10 min at 25 °C. Following pre-incubation, 500 μL of 1% starch solution in 0.02 M sodium phosphate buffer (pH 6.9) was added and incubated for 10 min at 25 °C. An amount of 1 mL of dinitro salicylic acid color reagent was used to stop the reaction. The tubes were then placed in boiling water for 5 min before being cooled to room temperature. After diluting the solutions with 10 mL of distilled water, the absorbance at 540 nm was measured. […] The percentage of enzyme inhibition was calculated using the following equation:(1) % of Enzyme Inhibition=(Absorbance of control – Absorbance of compound)×100 /Absorbance of control

Data set [1] can be described thus: Ferric reducing antioxidant power (FRAP) assay. Conditions: for FRAP: ferric reducing antioxidant power: compound 1 mM, 593 nm. Here is the method: The FRAP reagent is a 1:1:10 mixture of TPTZ (2,4,6-Tris(2-pyridyl)-S-triazine, 10 mM prepared in 40 mM HCl), FeCl3.6H2O (20 mM), and acetate buffer (300 mM, pH 3.6). Accurately, 0.1 mL of the samples (final concentration 1 mM in DMSO) was thoroughly mixed with 2 mL of the FRAP reagent and incubated at room temperature for 30 min. At 593 nm, the absorbance was measured. The compounds FRAP activity was calculated using the FRAP-trolox calibration curve in trolox equivalent.

Data set [2] can be described thus: Total antioxidant capacity (TAC), molybdate reduction. The settings on record: for TAC: total antioxidant capacity: compound 1 mM in DMSO, 695 nm. As to the method:
An amount of 2 mL of freshly prepared 0.6 M solution of sulfuric acid, a solution of ammonium molybdate (4 mM), and a buffer solution of sodium phosphate (28 mM) were placed in small glass test tubes and thoroughly mixed with the compound solution (200 μL in DMSO with a concentration of 1 mM). An amount of 2 mL of molybdate reagent was mixed with 200 μL of distilled water to make a blank test. The cylinders were warmed to 85 °C for 1.5 h before cooling to ambient temperature. At 695 nm, the produced blue color was assessed with a UV spectrophotometer, with the blank reading having to serve as the auto-zero point. The TAC results were calculated using the Trolox standard calibration curve.

Data set [3] in a line: Iron chelating activity assay (MCA). Conditions: for MCA: metal chelating activity: compound 1 mM, 562 nm. As to the method:
Using the method of Zengin et al. with modification, the ability of compounds to chelate iron compared to the EDTA was estimated. To inchoate the color, a compound solution in DMSO ([…] a final concentration of 1 mM) plus ferrous chloride (25 μL, 2 mM, FeCl2) was added to 100 μL of ferrozine. At 562 nm, the absorbance of the mixture was measured in comparison to a blank (prepared similarly to a test without ferrozine). The chelating activity of the extract was calculated in equivalents to the EDTA standard calibration curve.

Data set [4] can be described thus: DPPH scavenging activity (DPPH-SA). Conditions: for DPPH-SA: 2,2-diphenyl-1-picrylhydrazyl scavenging activity: compound 1 mM, 517 nm. Here is the method:
The ability of the compounds to scavenge free radicals was tested against DPPH-stable free radicals. The degree of reduction in the DPPH violet color is directly proportional to the scavenging efficacy of the compounds. According to the method of Aroua et al., 1 mL of the DMSO solutions of the tested compounds (1 mM final concentration) was thoroughly mixed in test tubes with the DPPH solution prepared at the concentration of 300 µM in methanol. After 30 min at room temperature, the reduction in DPPH-violet color was measured at 517 nm. The DPPH-SA of the compounds was calculated using the DPPH-Trolox calibration curve.

T1 sequence (P53341 whole entry): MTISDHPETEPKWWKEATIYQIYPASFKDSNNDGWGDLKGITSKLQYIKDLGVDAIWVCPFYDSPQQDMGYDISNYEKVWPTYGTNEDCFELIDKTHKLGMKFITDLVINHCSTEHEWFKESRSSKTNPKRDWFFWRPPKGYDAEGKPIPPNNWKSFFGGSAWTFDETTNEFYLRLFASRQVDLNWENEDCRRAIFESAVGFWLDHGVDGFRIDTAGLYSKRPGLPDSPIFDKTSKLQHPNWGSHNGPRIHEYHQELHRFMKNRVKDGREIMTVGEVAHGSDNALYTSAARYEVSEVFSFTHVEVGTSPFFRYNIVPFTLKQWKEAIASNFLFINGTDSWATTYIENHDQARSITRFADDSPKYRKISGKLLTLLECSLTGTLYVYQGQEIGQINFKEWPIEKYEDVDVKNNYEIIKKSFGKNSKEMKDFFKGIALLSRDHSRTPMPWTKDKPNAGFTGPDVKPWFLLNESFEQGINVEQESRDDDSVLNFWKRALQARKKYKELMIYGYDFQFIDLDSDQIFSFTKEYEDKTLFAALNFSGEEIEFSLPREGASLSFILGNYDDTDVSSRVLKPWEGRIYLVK

As a reminder, the IC50 is the concentration that gives 50% inhibition. What is called melting point is the temperature of the solid-liquid transition. Regarding `O=C(Nc1ccccc1)Nc1ccccc1-c1nc2ccccc2[nH]1` [3a, 1-(2-(1H-benzo[d]imidazol-2-yl)phenyl)-3-phenylurea], the melting point was 129 to 131 °C. Moreover, on α-glucosidase, the 50% inhibitory concentration (IC50) was determined as 42.97 ± 0.19 µM. Further, the concentration for half-maximal inhibition (IC50) on α-amylase stood at 40.7 ± 0.06 µM. In data set [1], the “FRAP: ferric reducing antioxidant power” value was 6.53 ± 0.03 trolox equivalent per 1 mM of the compounds. For the same compound, the “TAC: total antioxidant capacity” value in data set [2] was 1.33 ± 0.46 trolox equivalent per 1 mM of the compounds. Also, the “MCA: metal chelating activity” value in data set [3] was 1.62 ± 0.10 EDTA equivalent per 1 mM of the compounds. In data set [4], the “DPPH-SA: 2,2-diphenyl-1-picrylhydrazyl scavenging activity” value is on record as 1.17 ± 0.07 trolox equivalent per 1 mM of the compounds.
Take `O=C(Nc1ccccc1-c1nc2ccccc2[nH]1)Nc1cccc2ccccc12` [3b, 1-(2-(1H-benzo[d]imidazol-2-yl)phenyl)-3-(naphthalen-1-yl)urea]: the melting point was 203 to 205 °C. In addition, the IC50 at α-glucosidase stood at 45.97 ± 0.19 µM. In addition, at α-amylase, the half-inhibitory concentration (IC50) turned out to be 41.7 ± 0.06 µM. The “FRAP: ferric reducing antioxidant power” value in data set [1] is 9.25 ± 0.20 trolox equivalent per 1 mM of the compounds. In data set [2], the “total antioxidant capacity (TAC), molybdenum (VI) reducing activity” value came out at 5.16 ± 0.69 mM trolox equivalents and the “TAC: total antioxidant capacity” value is reported as 5.16 ± 0.69 trolox equivalent per 1 mM of the compounds. The “MCA: metal chelating activity” value in data set [3] is recorded as 1.55 ± 0.07 EDTA equivalent per 1 mM of the compounds. Also, the “DPPH-SA: 2,2-diphenyl-1-picrylhydrazyl scavenging activity” value in data set [4] is 0.96 ± 0.06 trolox equivalent per 1 mM of the compounds.
For `COc1ccc(NC(=O)Nc2ccccc2-c2nc3ccccc3[nH]2)cc1` [3c, 1-(2-(1H-benzo[d]imidazol-2-yl)phenyl)-3-(4-methoxyphenyl)urea], the melting point fell in the range of 197 to 199 °C. Moreover, the half-inhibitory concentration (IC50) at α-glucosidase came out at 17.47 ± 0.03 µM. On α-amylase, the IC50 came out at 18.7 ± 0.23 µM. Moreover, in data set [1], the “ferric reducing antioxidant power (FRAP)” value was 8.65 ± 0.29 mM trolox equivalents and the “FRAP: ferric reducing antioxidant power” value is recorded as 8.65 ± 0.29 trolox equivalent per 1 mM of the compounds. In data set [2], the “total antioxidant capacity (TAC), molybdenum (VI) reducing activity” value was found to be 4.43 ± 0.53 mM trolox equivalents and the “TAC: total antioxidant capacity” value is listed as 4.43 ± 0.53 trolox equivalent per 1 mM of the compounds. In addition, the “MCA: metal chelating activity” value in data set [3] is listed as 1.55 ± 0.22 EDTA equivalent per 1 mM of the compounds. Further, in data set [4], the “DPPH-SA: 2,2-diphenyl-1-picrylhydrazyl scavenging activity” value is on record as 1.61 ± 0.02 trolox equivalent per 1 mM of the compounds.
Consider `O=C(Nc1ccccc1-c1nc2ccccc2[nH]1)NC1CCCCC1` [3d, 1-(2-(1H-benzo[d]imidazol-2-yl)phenyl)-3-cyclohexylurea], for which the melting point was in the range of 330 to 332 °C. For the same compound, the IC50 on α-glucosidase stood at 27.47 ± 0.13 µM. In addition, the IC50 on α-amylase was 25.65 ± 0.03 µM. Further, the “FRAP: ferric reducing antioxidant power” value in data set [1] was 5.67 ± 0.69 trolox equivalent per 1 mM of the compounds. In addition, the “TAC: total antioxidant capacity” value in data set [2] is given as 2.47 ± 0.42 trolox equivalent per 1 mM of the compounds. Further, the “MCA: metal chelating activity” value in data set [3] is on record as 1.46 ± 0.10 EDTA equivalent per 1 mM of the compounds. In data set [4], the DPPH-SA is listed as 2.89 ± 1.07 mM trolox equivalents and the “DPPH-SA: 2,2-diphenyl-1-picrylhydrazyl scavenging activity” value is on record as 2.89 ± 1.07 trolox equivalent per 1 mM of the compounds.
In turn, `CC(C)NC(=O)Nc1ccccc1-c1nc2ccccc2[nH]1` [3e, 1-(2-(1H-benzo[d]imidazol-2-yl)phenyl)-3-isopropylurea] returned a melting point of 196 to 198 °C. The half-maximal inhibitory concentration (IC50) on α-glucosidase is 21.97 ± 0.19 µM. The 50% inhibitory concentration (IC50) on α-amylase is 20.7 ± 0.06 µM. The “FRAP: ferric reducing antioxidant power” value in data set [1] is 2.75 ± 0.15 trolox equivalent per 1 mM of the compounds. Moreover, the “TAC: total antioxidant capacity” value in data set [2] is recorded as 2.52 ± 0.80 trolox equivalent per 1 mM of the compounds. In data set [3], the “MCA: metal chelating activity” value is 1.47 ± 0.09 EDTA equivalent per 1 mM of the compounds. Moreover, the “DPPH-SA: 2,2-diphenyl-1-picrylhydrazyl scavenging activity” value in data set [4] was 1.70 ± 0.01 trolox equivalent per 1 mM of the compounds.
Compound `CCCCNC(=O)Nc1ccccc1-c1nc2ccccc2[nH]1` [3f, 1-(2-(1H-benzo[d]imidazol-2-yl)phenyl)-3-butylurea] came in with a melting point of 196 to 198 °C. The half-inhibitory concentration (IC50) at α-glucosidase stood at 29.01 ± 0.12 µM. In addition, the IC50 at α-amylase was found to be 28.33 ± 0.02 µM. Moreover, the “FRAP: ferric reducing antioxidant power” value in data set [1] is reported as 5.99 ± 0.02 trolox equivalent per 1 mM of the compounds. Besides, in data set [2], the “total antioxidant capacity (TAC), molybdenum (VI) reducing activity” value is recorded as 8.50 ± 0.87 mM trolox equivalents and the “TAC: total antioxidant capacity” value is 8.50 ± 0.87 trolox equivalent per 1 mM of the compounds. In data set [3], the “MCA: metal chelating activity” value was 1.40 ± 0.07 EDTA equivalent per 1 mM of the compounds. In addition, the “DPPH-SA: 2,2-diphenyl-1-picrylhydrazyl scavenging activity” value in data set [4] is reported as 1.55 ± 0.03 trolox equivalent per 1 mM of the compounds.
The compound `O=C(Nc1ccc(NC(=O)Nc2ccccc2-c2nc3ccccc3[nH]2)cc1)Nc1ccccc1-c1nc2ccccc2[nH]1` [3g, 1,1’-(1,4-phenylene)bis(3-(2-(1H-benzo[d]imidazol-2-yl)phenyl)urea)] returned a melting point of 190 to 192 °C. In addition, on α-glucosidase, the half-inhibitory concentration (IC50) came out at 23.01 ± 0.12 µM. Further, the IC50 at α-amylase is 22.33 ± 0.12 µM. In data set [1], the “ferric reducing antioxidant power (FRAP)” value was 16.12 ± 0.29 mM trolox equivalents and the “FRAP: ferric reducing antioxidant power” value is 16.12 ± 0.29 trolox equivalent per 1 mM of the compounds. In data set [2], the “total antioxidant capacity (TAC), molybdenum (VI) reducing activity” value is on record as 10.06 ± 1.51 mM trolox equivalents and the “TAC: total antioxidant capacity” value is recorded as 10.06 ± 1.51 trolox equivalent per 1 mM of the compounds. The “MCA: metal chelating activity” value in data set [3] was 1.36 ± 0.09 EDTA equivalent per 1 mM of the compounds. In addition, in data set [4], the DPPH-SA amounted to 3.86 ± 0.04 mM trolox equivalents and the “DPPH-SA: 2,2-diphenyl-1-picrylhydrazyl scavenging activity” value was 3.86 ± 0.04 trolox equivalent per 1 mM of the compounds.
The compound `O=C(NCC1CCC(CNC(=O)Nc2ccccc2-c2nc3ccccc3[nH]2)CC1)Nc1ccccc1-c1nc2ccccc2[nH]1` (centres unmarked) [3h, 1,1′-(cyclohexane-1,4-diylbis(methylene))bis(3-(2-(1H-benzo[d]imidazol-2-yl)phenyl)urea)] showed a melting point of 190 to 192 °C. Further, the IC50 on α-glucosidase came to 44.99 ± 0.09 µM. Moreover, the IC50 on α-amylase stood at 43.04 ± 0.02 µM. Further, in data set [1], the “FRAP: ferric reducing antioxidant power” value is reported as 6.79 ± 0.50 trolox equivalent per 1 mM of the compounds. Moreover, the “TAC: total antioxidant capacity” value in data set [2] is reported as 2.25 ± 0.65 trolox equivalent per 1 mM of the compounds. For the same compound, in data set [3], the “metal chelating activity (MCA)” value is given as 2.95 ± 0.21 mM EDTA equivalents and the “MCA: metal chelating activity” value was 2.95 ± 0.21 EDTA equivalent per 1 mM of the compounds. Further, in data set [4], the “DPPH-SA: 2,2-diphenyl-1-picrylhydrazyl scavenging activity” value is given as 1.09 ± 0.03 trolox equivalent per 1 mM of the compounds.

The values above are taken from article PMC9963656, “Synthesis, Molecular Docking, and Bioactivity Study of Novel Hybrid Benzimidazole Urea Derivatives: A Promising α-Amylase and α-Glucosidase Inhibitor Candidate with Antioxidant Activity” (Pharmaceutics, 2023).
